Measured values reported in patent publication US12285470B2, “Trim proteins and galectins cooperate and codirect autophagy and are useful in the treatment of autophagy related diseases” (UNM RAINFOREST INNOVATIONS, priority 2016, dated 2025).
Where a SMILES comes first, the peptide text is derived from it. The star is where a group is joined. βNA = c1ccc2cc(N*)ccc2c1

Tests used:
[1] = test system: primary murine bone marrow-derived macrophages (BMMs); test: Oxygen consumption rate (Seahorse) in bone marrow-derived macrophages; format: cell-based
[2] = test system: HEK293 cells with YFP-Gal fusion; test: YFP-Galectin puncta formation by high content microscopy; format: cell-based; conditions: 100 μM, 1h
Text: Data, means±SD; n=1000 cells per condition; n>3; ANOVA, Tukey's t test vs. control, *p<0.05.**p<0.01.
a) Screen set up. […] Given that the endomembrane damage protection is a highly conserved process, we will use stable (Flp-In) YFP-Gal8 and YFP-Gal9 293A cells. […] In THP-1 cells, we will use endogenous Gal8 and Gal9 responses to lysosomal damage control. […] Quantification of target 1 (Gal8) and target II (Gal9) intracellular objects (Gal8 puncta) will be done by automated HC microscopy on our Cellomics Array Scanner system and processed, as we have recently published^99. We will use in primary tests parameters of 20 fields per well and >500 valid primary objects per well, corresponding to parameters that follow Z values of >0.5^155 in positive controls (100 μM GPN; 2 mM LLOMe) vs. negative controls (DMSO). For secondary tests of positive hits, 49 field/plate will be examined.

[3] = test system: DEPTOR; test: DEPTOR levels in extracts of HeLa cells; format: cell-based; conditions: 1 mM, 2h
Description: (§1) Immunoblots and co-IPs assays for endogenous or exogenously expressed proteins were carried out as described previously (Chauhan et al., 2015). For immunoprecipitation experiments with exogenously expressed proteins, 293T cells were transfected with 5 μg of expression constructs by calcium phosphate for 24 h and lysed on ice using NP-40 buffer (Invitrogen) containing protease inhibitor cocktail (Roche, cat #11697498001) and […] (Sigma, cat #93482). Lysates were mixed with antibody (2-3 μg) incubated at 4° C. for 2 h followed by incubation with protein G Dynabeads (Life technologies) for 2 h at 4° C. Beads were washed four times with PBS and then boiled with SDS-PAGE buffer for analysis of interacting protein by Immunoblotting. Input lanes contained 10% of material unless otherwise indicated.

[4] = test system: HeLa cells; test: High content microscopy of LC3 and ubiquitin puncta after lysosomal damage; format: cell-based
Description: (§2) High content microscopy with automated image acquisition and quantification was carried out using a Cellomics HCS scanner and iDEV software (Thermo) in 96-well plates (Mandell et al., 2014). Immunofluorescence confocal microscopy was performed using an LSM510 confocal microscope and Zeiss software package. For quantification of puncta or total cell fluorescence, image J was used as described previously (Chauhan et al., 2015). For quantifying cell death, HeLa and derivative cells treated with 15 μM siramesine for 12 h were incubated with 7AAD (BD Pharmingen™; cat #559925) for 30 min and fluorescence of 7AAD bound to nuclear DNA measured in a flow cytometer.

[5] = test system: TFEB; test: High content analysis of TFEB nuclear translocation; format: cell-based; conditions: HeLa cells, lysosomal damage
Description: as §2

[6] = test system: mTOR; test: S6K1 phosphorylation (mTOR target) immunoblot in HeLa cells; format: cell-based; conditions: 1 mM, 2h
Description: as §1

[7] = test system: HeLa cells; test: Cell death by 7AAD nuclear staining, flow cytometry; format: cell-based
Description: as §2

[8] = test system: THP-1 cells; test: Confocal microscopy of TRIM16 puncta in THP-1 cells; format: cell-based; conditions: 0.5 mM
Description: as §2

[9] = test system: Mtb Erdman; design: species or system C57BL/6J mice; conditions: mouse, in vivo
[10] = Blood levels of rapamycin by mass spectrometry in mice on eRAPA chow; conditions: 42 ppm eRAPA dose in chow; n=8 animals, mean±SD (±35 ng/ml)
[11] = test system: HeLa cells; conditions: Petersen et al., 2013; cited from earlier work
[12] = test system: HeLa cells; test: Confocal microscopy of TRIM16 puncta in HeLa cells; format: cell-based
Description: as §2

[13] = target: T1, Galectin-3 (Homo sapiens, UniProt P17931); test: GST pulldown of in vitro translated radiolabeled TRIMs with GST-Galectin-3; format: binding; conditions: in vitro translated 35S-Myc-HA-TRIMs, no ULK1 added
T1 construct: made in house; host or cells: Escherichia coli SoluBL21
T1 sequence (P17931 whole entry): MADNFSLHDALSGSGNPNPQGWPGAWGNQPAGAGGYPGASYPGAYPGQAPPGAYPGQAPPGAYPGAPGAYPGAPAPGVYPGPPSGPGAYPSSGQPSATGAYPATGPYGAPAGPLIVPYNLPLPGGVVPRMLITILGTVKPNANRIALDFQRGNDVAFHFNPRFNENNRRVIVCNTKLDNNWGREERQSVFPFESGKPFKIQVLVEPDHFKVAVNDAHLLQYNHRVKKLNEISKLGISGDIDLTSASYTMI
Text: (§3) GST-fusion proteins were expressed in Escherichia coli SoluBL21 (Amsbio). […] The [^35S] labeled proteins were produced using the TNT T7 Quick Coupled Transcription/Translation System (Promega) in the presence of [^35S] L-methionine. The proteins were eluted from washed beads by boiling in SDS-PAGE gel loading buffer. separated by SDS-PAGE, and radiolabeled proteins were detected in a Fujifilm bioimaging analyzer BAS-5000 (Fuji).

[14] = target: T2, Galectin-8 (Homo sapiens, UniProt O00214); test: GST pulldown of in vitro translated radiolabeled TRIMs with GST-Galectin-8; format: binding; conditions: in vitro translated 35S-Myc-HA-TRIMs
T2 construct: made in house; host or cells: Escherichia coli SoluBL21
T2 sequence (O00214 1-359 isoform O00214-2): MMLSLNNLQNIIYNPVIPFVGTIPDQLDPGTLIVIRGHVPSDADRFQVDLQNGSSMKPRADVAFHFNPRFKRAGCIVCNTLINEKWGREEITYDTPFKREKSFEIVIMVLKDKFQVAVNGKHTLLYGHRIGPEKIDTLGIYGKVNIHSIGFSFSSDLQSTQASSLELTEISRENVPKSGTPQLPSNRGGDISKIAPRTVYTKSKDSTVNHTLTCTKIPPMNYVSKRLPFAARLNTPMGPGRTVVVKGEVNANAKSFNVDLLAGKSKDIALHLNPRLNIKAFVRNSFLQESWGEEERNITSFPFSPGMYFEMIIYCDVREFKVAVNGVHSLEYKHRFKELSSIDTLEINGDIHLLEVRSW
Text: as §3

For NCC(=O)N[C@@H](Cc1ccccc1)C(=O)Nc1ccc2ccccc2c1 [GPN, Gly-Phe-naphthylamide] (H-Gly-Phe-βNA), the “oxygen consumption rate (OCR)” value [1] was “alters” and the “cytoplasmic Galectin puncta formation response” value [2] was “Gal3, Gal8 and Gal9 give the most robust response”.

For COC(=O)[C@H](CC(C)C)NC(=O)[C@@H](N)CC(C)C [LLOMe, Leu-Leu-O-Me], the “cellular DEPTOR level” value [3] was “increased”, the “LC3 response (endogenous LC3B puncta)” value [4] was “consistent LC3 dose response” and the “abundance of ubiquitin puncta” value ([4]; high content microscopy) was “Dose-dependent increase”. The “TFEB translocation to the nucleus” value [5] was “translocated to the nucleus”, the “mTOR activity (S6K1 phosphorylation)” value [6] was “inhibited” and the lysosomal cell death ([7]; HeLa cells) was “cannot cause significant lysosomal cell death”. The “TRIM16 puncta formation in leukocytes” value [8] was “morphologically prominent”.

In the case of Nc1c(Br)cc(Br)cc1CN[C@H]1CC[C@H](O)CC1 [ambroxol], the “effect on Mtb lung CFU in combination with rifampicin” value [9] is reported as “synergism”.

With CO[C@H]1C[C@@H]2CC[C@@H](C)[C@@](O)(O2)C(=O)C(=O)N2CCCC[C@H]2C(=O)O[C@H]([C@H](C)C[C@@H]2CC[C@@H](O)[C@H](OC)C2)CC(=O)[C@H](C)/C=C(\C)[C@@H](O)[C@@H](OC)C(=O)[C@H](C)C[C@H](C)/C=C/C=C/C=C/1C [rapamycin] the “blood levels of rapamycin” value [10] was 205 ng/mL.

In the case of Fc1ccc(-n2cc(CCCCN3CCC4(CC3)OCc3ccccc34)c3ccccc32)cc1 [siramesine], the “cell death in HeLa cells (literature)” value [11] is listed as “can promote cell death”, the “TRIM16 puncta formation in HeLa cells” value [12] is listed as “formation of TRIM16 puncta that colocalized with LC3B” and the “sensitivity to cell death in TRIM16KO HeLa cells vs HeLa” value ([7]; 15 μM, 12 h, 7AAD) is listed as “increased sensitivity to cell death”.

B1: TRIM49: TRIM (tripartite motif) protein tested in GST-Galectin pulldowns (protein)
chain: MNSGILQVFQGELICPLCMNYFIDPVTIDCGHSFCRPCFYLNWQDIPFLVQCSECTKSTEQINLKTNIHLKKMASLARKVSLWLFLSSEEQMCGTHRETKKIFCEVDRSLLCLLCSSSQEHRYHRHRPIEWAAEEHREKLLQKMQSLWEKACENHRNLNVETTRTRCWKDYVNLRLEAIRAEYQKMPAFHHEEEKHNLEMLKKKGKEIFHRLHLSKAKMAHRMEILRGMYEELNEMCHKPDVELLQAFGDILHRSESVLLHMPQPLNPELSAGPITGLRDRLNQFRVHITLHHEEANNDIFLYEILRSMCIGCDHQDVPYFTATPRSFLAWGVQTFTSGKYYWEVHVGDSWNWAFGVCNMYRKEKNQNEKIDGKAGLFLLGCVKNDIQCSLFTTSPLMLQYIPKPTSRVGLFLDCEAKTVSFVDVNQSSLIYTIPNCSFSPPLRPIFCCIHF
modifications: left off: small tags and cut ends
notes: TRIM (tripartite motif) protein tested in GST-Galectin pulldowns
In the case of B1, the “binding to GST-Galectin-3 in GST pulldown” value [13] is reported as “bound” and the “binding to GST-Galectin-8 in GST pulldown” value [14] is reported as “bound”.

B2: TRIM20: TRIM protein, Accession No. NM_000243, SEQ ID NO: 7 (protein, listed as Homo sapiens)
chain: MAKTPSDHLLSTLEELVPYDFEKFKFKLQNTSVQKEHSRIPRSQIQRARPVKMATLLVTYYGEEYAVQLTLQVLRAINQRLLAEELHRAAIQEYSTQENGTDDSAASSSLGENKPRSLKTPDHPEGNEGNGPRPYGGGAASLRCSQPEAGRGLSRKPLSKRREKASEGLDAQGKPRTRSPALPGGRSPGPCRALEGGQAEVRLRRNASSAGRLQGLAGGAPGQKECRPFEVYLPSGKMRPRSLEVTISTGEKAPANPEILLTLEEKTAANLDSATEPRARPTPDGGASADLKEGPGNPEHSVTGRPPDTAASPRCHAQEGDPVDGTCVRDSCSFPEAVSGHPQASGSRSPGCPRCQDSHERKSPGSLSPQPLPQCKRHLKQVQLLFCEDHDEPICLICSLSQEHQGHRVRPIEEVALEHKKKIQKQLEHLKKLRKSGEEQRSYGEEKAVSFLKQTEALKQRVQRKLEQVYYFLEQQEHFFVASLEDVGQMVGQIRKAYDTRVSQDIALLDALIGELEAKECQSEWELLQDIGDILHRAKTVPVPEKWTTPQEIKQKIQLLHQKSEFVEKSTKYFSETLRSEMEMFNVPELIGAQAHAVNVILDAETAYPNLIFSDDLKSVRLGNKWERLPDGPQRFDSCIIVLGSPSFLSGRRYWEVEVGDKTAWILGACKTSISRKGNMTLSPENGYWVVIMMKENEYQASSVPPTRLLIKEPPKRVGIFVDYRVGSISFYNVTARSHIYTFASCSFSGPLQPIFSPGTRDGGKNTAPLTICPVGGQGPD
For B2, the “binding to GST-Galectin-3 in GST pulldown” value [13] was “bound” and the “binding to GST-Galectin-8 in GST pulldown” value [14] was “bound”.

B3: TRIM22: TRIM protein, Accession No. NM_006074, SEQ ID NO: 9 (protein, listed as Homo sapiens)
chain: MDFSVKVDIEKEVTCPICLELLTEPLSLDCGHSFCQACITAKIKESVIISRGESSCPVCQTRFQPGNLRPNRHLANIVERVKEVKMSPQEGQKRDVCEHHGKKLQIFCKEDGKVICWVCELSQEHQGHQTFRINEVVKECQEKLQVALQRLIKEDQEAEKLEDDIRQERTAWKNYIQIERQKILKGFNEMRVILDNEEQRELQKLEEGEVNVLDNLAAATDQLVQQRQDASTLISDLQRRLRGSSVEMLQDVIDVMKRSESWTLKKPKSVSKKLKSVFRVPDLSGMLQVLKELTDVQYYWVDVMLNPGSATSNVAISVDQRQVKTVRTCTFKNSNPCDFSAFGVFGCQYFSSGKYYWEVDVSGKIAWILGVHSKISSLNKRKSSGFAFDPSVNYSKVYSRYRPQYGYWVIGLQNTCEYNAFEDSSSSDPKVLTLFMAVPPCRIGVFLDYEAGIVSFFNVTNHGALIYKFSGCRFSRPAYPYFNPWNCLVPMTVCPPSS
For B3, the “binding to GST-Galectin-3 in GST pulldown” value [13] was “bound” and the “binding to GST-Galectin-8 in GST pulldown” value [14] was “bound”.

B4: TRIM 17: TRIM (tripartite motif) protein tested in GST-Galectin pulldowns (protein)
chain: MEAVELARKLQEEATCSICLDYFTDPVMTTCGHNFCRACIQLSWEKARGKKGRRKRKGSFPCPECREMSPQRNLLPNRLLTKVAEMAQQHPGLQKQDLCQEHHEPLKLFCQKDQSPICVVCRESREHRLHRVLPAEEAVQGYKLKLEEDMEYLREQITRTGNLQAREEQSLAEWQGKVKERRERIVLEFEKMNLYLVEEEQRLLQALETEEEETASRLRESVACLDRQGHSLELLLLQLEERSTQGPLQMLQDMKEPLSRKNNVSVQCPEVAPPTRPRTVCRVPGQIEVLRGFLEDVVPDATSAYPYLLLYESRQRRYLGSSPEGSGFCSKDRFVAYPCAVGQTAFSSGRHYWEVGMNITGDALWALGVCRDNVSRKDRVPKCPENGFWVVQLSKGTKYLSTFSALTPVMLMEPPSHMGIFLDFEAGEVSFYSVSDGSHLHTYSQATFPGPLQPFFCLGAPKSGQMVISTVTMWVKG
modifications: left off: small tags and cut ends
notes: as for B1
In the case of B4, the “binding to GST-Galectin-3 in GST pulldown” value [13] is reported as “bound” and the “binding to GST-Galectin-8 in GST pulldown” value [14] is reported as “bound”.
